What was measured:
Type in all cases: physicochemical
[1] = Slurry experiments in various solvents (polymorph screen)
Experimental: Slurry experiments in various solvents were performed. Approximately 30-80 mg of the starting solid (a non-stoichiometric hydrate of Form 1 having between […] and about 20% by weight water) was slurried in 39 different solvents (pure and binary solvents; the ratio of organic solvent/water (V/V) was […]) at RT and 50° C. for 5 days. Three solvates, one non-stoichiometric hydrate, and eleven non-solvated forms were identified. […] XRD of both wet and dry samples were scanned (FIG. 12A (dry sample)).
The slurry experiments identified 3 solvated forms from wet samples (Solvates 1, 2, and 3); 2 non-stoichiometric hydrates of Form 1 (Forms 12 and 13); and 11 non-solvated forms (Forms 1-11). In some instances, similar XRD scans with minor differences were obtained. These were considered to be part of the same class (e.g., the same form). For example, XRD scans of Form 2 and Form 2* were similar and were considered to belong to the same class. The solvated forms were obtained from wet sample analysis; after drying, the sample indicated a different XRD.
Solvate 1 was obtained from acetone at RT, and after drying, a low crystallinity solid was generated. Solvate 2 was obtained from acetone (at RT) and acetone/water (at RT), and after drying, Form 4** was generated. Solvate 3 was obtained from EtOH/water at RT, and after drying, Form 2 was generated.

[2] = Competitive slurry experiments between polymorph forms (thermodynamic stability); conditions: water at RT and 50° C.; slurried 3-5 days, XRD
Experimental: In order to find out the thermodynamic stability between the different forms, several competitive slurry experiments were carried out. Form 1, Form 2, Form 2*, Form 3, Form 4, Form 4*, Form 4**, Form 5, Form 7, Form 8, Form 9, Form 10, Form 11, Form 11*, and Form 13 (10 mg for each) was mixed and slurried in 2 mL of solvent at both RT and 50° C. The solids were slurried for 3-5 days and then analyzed by XRD.
In order to find out the thermodynamic stability between Form 13 and Form 9, several competitive slurry experiments were carried out. 15 mg of Form 1, Form 9 and Form 13 solid were mixed in 1 mL of toluene, IPAc, and n-butyl acetate, and slurried for 3 days at RT and 50° C.
The residual solid was analyzed by XRD.

[3] = Dynamic vapor sorption (DVS) scan; conditions: at 90% RH
Excerpt: The purity of the Form 13 sample was 98.8%; the KF of an undried Form 13 sample was 35.7%.

[4] = slurry in Acetonitrile/water (5% water), 50° C.
[5] = slurry in DCM/water (5% water), 50° C.
[6] = slurry in DCM/water (5% water), RT
[7] = slurry in Heptane/water (5% water), 50° C.
[8] = slurry in Heptane/water (5% water), RT
[9] = slurry in IPAc/water (5% water), 50° C.
[10] = slurry in MA/water (5% water), RT
[11] = slurry in MIBK/water (5% water), 50° C.
[12] = slurry in MeOH/water (5% water), 50° C.
[13] = slurry in MtBE/water (5% water), 50° C.
[14] = slurry in Toluene/water (5% water), 50° C.
[15] = slurry in Toluene/water (5% water), RT
[16] = slurry in n-Butanol/water (5% water), 50° C.
[17] = slurry in n-Butanol/water (5% water), RT
[18] = slurry in n-Butyl acetate/water (5% water), 50° C.
[19] = slurry in n-Butyl acetate/water (5% water), RT

## CC(C)CC(=O)Nc1cncc(-c2ccc3[nH]nc(-c4nc5c(-c6cccc(F)c6)cncc5[nH]4)c3c2)c1 [Form 13]
[1]; [4]
  Form, Dry: Form 13
  Form, Wet: Form 13
[1]; slurry in DCM, 50° C.
  Form, Dry: Form 13
  Form, Wet: Form 13
[1]; [5]
  Form, Dry: Form 1
  Form, Wet: Form 13
[1]; [6]
  Form, Dry: Form 1
  Form, Wet: Form 13
[1]; slurry in Heptane, 50° C.
  Form, Dry: Form 13
  Form, Wet: Form 13
[1]; [7]
  Form, Dry: Form 1
  Form, Wet: Form 13
[1]; [8]
  Form, Dry: Form 12
  Form, Wet: Form 13
[1]; [9]
  Form, Dry: Form 13
  Form, Wet: Form 13
[1]; [10]
  Form, Dry: Form 1
  Form, Wet: Form 13
[1]; [11]
  Form, Dry: Form 1
  Form, Wet: Form 13
[1]; slurry in MeOH, RT
  Form, Dry: Form 1
  Form, Wet: Form 13
[1]; [12]
  Form, Dry: Form 13
  Form, Wet: Form 13
[1]; [13]
  Form, Dry: Form 13
  Form, Wet: Form 13
[1]; [14]
  Form, Dry: Form 13
  Form, Wet: Form 13
[1]; [15]
  Form, Dry: Form 1
  Form, Wet: Form 13
[1]; [16]
  Form, Dry: Form 1
  Form, Wet: Form 13
[1]; [17]
  Form, Dry: Form 13
  Form, Wet: Form 13
[1]; [18]
  Form, Dry: Form 1
  Form, Wet: Form 13
[1]; [19]
  Form, Dry: Form 12
  Form, Wet: Form 13
[1]; slurry in water, 50° C.
  Form, Dry: Form 13
  Form, Wet: Form 13
[1]; slurry in water, RT
  Form, Dry: Form 1
  Form, Wet: Form 13
[2]
  thermodynamic stability between forms (competitive slurry): most stable
[3]
  water absorption (DVS scan): 17%

— patent US11667632B2, “2-(1H-indazol-3-yl)-3H-imidazo[4,5-C]pyridines and their anti-inflammatory uses thereof” (BioSplice Therapeutics, Inc., priority 2015, dated 2023)
